This test deals with T1, EP4 (Cavia porcellus, UniProt Q1HG69).
T1 construct: Tissue samples including submucosal ganglia and mucosa were obtained by removal of myenteric plexus; from tissue; host or cells: guinea pig distal colon (mucosa with submucosal ganglia), mounted in Ussing flux chambers
Kind of test: Short-circuit current (Isc) measurement of colonic ion transport in guinea pig distal colon tissue using Ussing flux chamber (investigation of EP4 agonistic activity). In kind it is cell-based.

T1 sequence (Q1HG69 1-487): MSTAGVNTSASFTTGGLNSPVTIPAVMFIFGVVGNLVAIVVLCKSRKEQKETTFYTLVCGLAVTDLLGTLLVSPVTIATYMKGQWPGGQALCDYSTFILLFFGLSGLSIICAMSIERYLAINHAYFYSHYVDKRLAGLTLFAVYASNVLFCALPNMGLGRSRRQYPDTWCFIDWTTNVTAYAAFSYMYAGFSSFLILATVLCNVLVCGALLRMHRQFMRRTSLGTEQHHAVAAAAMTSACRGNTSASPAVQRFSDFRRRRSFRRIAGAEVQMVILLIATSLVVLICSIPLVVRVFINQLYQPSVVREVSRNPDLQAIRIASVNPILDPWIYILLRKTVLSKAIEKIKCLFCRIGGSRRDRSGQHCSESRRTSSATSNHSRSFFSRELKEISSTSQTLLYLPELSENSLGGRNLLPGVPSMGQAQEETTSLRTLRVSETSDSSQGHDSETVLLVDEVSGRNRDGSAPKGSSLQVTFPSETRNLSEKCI

As for `COCc1cccc(C[C@H](O)/C=C/[C@H]2[C@H](O)CC(=O)[C@@H]2SCCCSCC(=O)O)c1` [compound 1, ({3-[((1R,2S,3R)-3-hydroxy-2-{(1E,3S)-3-hydroxy-4-[3-(methoxymethyl)phenyl]but-1-enyl}-5-oxocyclopentyl)sulfanyl]propyl}sulfanyl)acetic acid], where the note is “addition of test compound into serosal chamber, concentration not given, FIG. 3”, the “change of short-circuit current (Isc)” value was “decrease of short-circuit current (Isc)”.
Consider `CCCCC[C@H](O)/C=C/[C@H]1[C@H](O)CC(=O)[C@@H]1C/C=C\CCCC(=O)O` [PGE2], for which the “decrease of short-circuit current (Isc) in presence of EP4 antagonist” value (PGE2 at low concentration plus EP4 antagonist (not named)) is recorded as “countered by EP4 antagonist”. For the same compound, the “change of short-circuit current (Isc)” value was “biphasic [Transient phase, Sustained Phase] change of short-circuit current (Isc)” (added into serosal chamber at 10^-5 mol/L, tetrodotoxin and piroxicam pretreatment, FIG. 1); “temporary increase of Isc” (added into serosal chamber at 10^-6 mol/L, tetrodotoxin and piroxicam pretreatment, FIG. 1); “decrease of Isc” (added into serosal chamber at from 10^-8 to 10^-7 mol/L, tetrodotoxin and piroxicam pretreatment, FIG. 1); “decrease of short-circuit current (Isc)” (low concentration). The “potassium secretion (suggested by decrease of Isc)” value (low concentration) was “promoted the potassium secretion”.

These data come from patent US20080234337A1, “Preventive and/or Remedy for Hyperkalemia Containing Ep4 Agonist” (ONO PHARMACEUTICAL CO., LTD., priority 2004, published 2008).
